Measured values as given in patent publication US7727960B2, “C5a receptor antagonists” (Jerini AG, priority 2003, dated 2010).
Like-named read-outs stand apart in the source and are kept apart here. Each block holds one molecule with its values, some of them ahead of it. Starred links: 1 amine or outer side, 2 acyl side, 3 side chain; linkers in the order of their positions; H or OH if unused. Positions of bridges follow the written chain, without caps; N, C: chain ends. Non-standard residues stand in square brackets, D forms with d. Residues, ends and D or L forms follow the SMILES beside them. *: point of attachment. X2 = COC1O[C@H](C(=O)[*:2])[C@@H](O)[C@H](O)[C@H]1N[*:1]; Dip = N[C@H](C(=O)O)C(c1ccccc1)c1ccccc1; His(τ-Me) = Cn1cnc(C[C@H](N)C(=O)O)c1; Bta = N[C@@H](Cc1csc2ccccc12)C(=O)O; Hydrocinnamoyl = O=C(CCc1ccccc1)*; 2Thi = N[C@@H](Cc1cccs1)C(=O)O; dCha = N[C@H](CC1CCCCC1)C(=O)O; AllylGly = C=CC[C@H](N)C(=O)O; Pip = O=C(O)[C@@H]1CCCCN1; Nle = CCCC[C@H](N)C(=O)O; Orn = NCCC[C@H](N)C(=O)O; Pra = C#CC[C@H](N)C(=O)O; Aze = O=C(O)[C@@H]1CCN1; Nva = CCC[C@H](N)C(=O)O

Experiments:
human C5aR (CD88) [1] = target: T1, human C5aR (CD88) (Homo sapiens, UniProt P21730); test: Determination of EC50 values in an enzyme release assay (agonistic activity, no C5a added); format: cell-based; conditions: for agonistic activity (in words): cellular assay, up to a concentration of at least 1430 nM
T1 construct: expressed in transfected cells; host or cells: rat basophilic leukemia cells (RBL)
T1 sequence (P21730 1-350): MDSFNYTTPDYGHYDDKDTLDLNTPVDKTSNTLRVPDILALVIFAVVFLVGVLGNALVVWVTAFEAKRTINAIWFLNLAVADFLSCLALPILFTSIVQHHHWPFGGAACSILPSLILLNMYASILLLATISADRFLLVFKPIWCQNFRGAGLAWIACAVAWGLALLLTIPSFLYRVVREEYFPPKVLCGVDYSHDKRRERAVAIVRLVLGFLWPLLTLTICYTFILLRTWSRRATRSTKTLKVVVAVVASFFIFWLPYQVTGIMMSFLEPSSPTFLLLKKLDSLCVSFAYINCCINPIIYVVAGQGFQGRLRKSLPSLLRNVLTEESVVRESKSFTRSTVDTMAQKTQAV
Procedure: The determination of the EC50 value was performed in a way similar to the procedure described in example 11, with the only exception that 30 μl of the compound to be tested were mixed with 75 μl of the cell suspension described in example 11. There was no preincubation or addition of C5a for stimulation of the enzyme release.

human C5aR (CD88) [2] = target: T1, human C5aR (CD88); test: Determination of the IC50 value in an enzyme release assay (functional assay, antagonistic activity); format: cell-based; conditions: for IC50-value compared to compound 40 (in words): arginine replaced by hydrophobic substitutions
[3] = Solubility determination for selected C5aR-antagonists; format: physicochemical; conditions: for Solubility in 20 mM HEPES pH 7.4: 20 mM HEPES pH 7.4, 24 h at RT; for solubility: aqueous HEPES buffer (pH 7.4)
Procedure: Solubility of compounds was determined by the following procedure: 20 μl of a 10 mM stock solution (in DMSO) of the compound were diluted in 980 μl of the solvent to be tested. After incubation for 24 h at RT under shaking the samples are centrifuged at 11.000 rpm in an Eppendorf centrifuge. The supematant is determined by photometry. […] Therefor the compound was suspended at 10 mg/ml in the solvent systems of choice. The undissolved part was removed by centrifugation after 24 h. The UV-absorption of the supernatant was measured and compared to a respective reference value 60% MeOH).

[4] = noteworthy = IC50 of less than 200 nM in the functional assay

agonistic activity (in words) (human C5aR (CD88) [1]): pure antagonists
Molecule: H-Phe-[Orn-Pro-cha-Trp-Phe]

agonistic activity (in words) (human C5aR (CD88) [1]): pure antagonists
Molecule: CC(=O)N[C@@H](Cc1ccccc1)C(=O)N[C@@H](Cc1c[nH]c2ccccc12)C(=O)N1CCC[C@H]1C(=O)N[C@H](CC1CCCCC1)C(=O)N[C@@H](Cc1c[nH]c2ccccc12)C(=O)N[C@@H](Cc1ccccc1)C(N)=O [Compound 84, Ac-Phe-Trp-Pro-cha-Trp-Phe-NH2] (Ac-FWP[dCha]WF-NH2)

agonistic activity (in words) (human C5aR (CD88) [1]): pure antagonists
Molecule: CC(=O)N[C@@H](Cc1ccccc1)C(=O)N[C@@H](CCCN)C(=O)N1CCC[C@H]1C(=O)N[C@H](CC1CCCCC1)C(=O)N[C@@H](Cc1c[nH]c2ccccc12)C(=O)N[C@@H](Cc1ccccc1)C(N)=O [Compound 51, Ac-Phe-Orn-Pro-cha-Trp-Phe-NH2] (Ac-F[Orn]P[dCha]WF-NH2)

agonistic activity (in words) (human C5aR (CD88) [1]): pure antagonists
Molecule: CC(=O)N[C@H](C(=O)N[C@@H](CCCN)C(=O)N1CCC[C@H]1C(=O)N[C@H](CC1CCCCC1)C(=O)N[C@@H](Cc1c[nH]c2ccccc12)C(=O)N[C@@H](Cc1ccccc1)C(N)=O)C(c1ccccc1)c1ccccc1 [Compound 71, Ac-Ebw-Orn-Pro-cha-Trp-Phe-NH2] (Ac-[Dip][Orn]P[dCha]WF-NH2)

agonistic activity (in words) (human C5aR (CD88) [1]): pure antagonists
Molecule: CC(=O)N[C@@H](Cc1ccccc1)C(=O)N[C@@H](CCCNC(=N)N)C(=O)N1CCC[C@H]1C(=O)N[C@H](CC1CCCCC1)C(=O)N[C@@H](Cc1c[nH]c2ccccc12)C(=O)N[C@@H](Cc1ccccc1)C(N)=O [Compound 88, Ac-Phe-Arg-Pro-cha-Trp-Phe-NH2] (Ac-FRP[dCha]WF-NH2)

agonistic activity (in words) (human C5aR (CD88) [1]): pure antagonists
Molecule: CCCC[C@@H]1NC(=O)[C@H](Cc2c[nH]c3ccccc23)NC(=O)[C@@H](CC2CCCCC2)NC(=O)[C@H](CO)NC(=O)[C@@H](NC(=O)[C@@H](N)Cc2ccccc2)CCCNC1=O [Compound 44, H-Phe-[Orn-Ser-cha-Trp-Nle]] (H-F[Orn]S[dCha]W[Nle]; lactam 2-C)

inhibitory activity (in words) (human C5aR (CD88) [2]; [4]): noteworthy inhibitory activity
Molecule: Ac-Phe-[Orn-Ser-cha-Trp-Phe]

agonistic activity (in words) (human C5aR (CD88) [1]): pure antagonists
Molecule: CC(=O)N[C@@H](Cc1cccs1)C(=O)N[C@@H](CCCN)C(=O)N1CCCC[C@H]1C(=O)N[C@H](CC1CCCCC1)C(=O)N[C@@H](Cc1csc2ccccc12)C(=O)N[C@@H](Cc1ccccc1)C(N)=O [Compound 67, Ac-Thi-Orn-Pip-cha-Bta-Phe-NH2] (Ac-[2Thi][Orn][Pip][dCha][Bta]F-NH2)

EC50 (human C5aR (CD88) [1]; agonistic activity, no preincubation or addition of C5a): 2.4 nM
B1: hrC5a: hrC5a (Sigma) used for stimulation of the enzyme release; agonist control in Table 5 (protein)
chain: TLQKKIEEIAAKYKHSVVKKCCYDGACVNNDETCEQRAARISLGPRCIKAFTECCVVASQLRANISHKDMQLGR

Second part, the molecule before the results:

Molecule: C=CC[C@@H]1NC(=O)[C@H](Cc2c[nH]c3ccccc23)NC(=O)[C@@H](CC2CCCCC2)NC(=O)[C@@H]2CCCN2C(=O)[C@@H](NC(=O)[C@H](Cc2ccccc2)NC(C)=O)CCCNC1=O [Compound 33, Ac-Phe-[Orn-Pro-cha-Trp-Eaf]] (Ac-F[Orn]P[dCha]W[AllylGly]; lactam 2-C)
agonistic activity (in words) (human C5aR (CD88) [1]): pure antagonists
IC50-value compared to compound 40 (in words) (human C5aR (CD88) [2]): without a significant increase of the IC50-value
inhibitory activity (in words) (human C5aR (CD88) [2]; [4]): noteworthy inhibitory activity

Molecule: Ac-Phe-Orn-cha-cha-Bta-Phe-NH2
agonistic activity (in words) (human C5aR (CD88) [1]): pure antagonists

Molecule: CC(=O)N[C@@H](Cc1ccccc1)C(=O)N[C@@H](CCCN)C(=O)N1CCCC[C@H]1C(=O)N[C@H](CC1CCCCC1)C(=O)N[C@@H](Cc1c[nH]c2ccccc12)C(=O)N[C@@H](Cc1ccccc1)C(N)=O [Compound 55, Ac-Phe-Orn-Pip-cha-Trp-Phe-NH2] (Ac-F[Orn][Pip][dCha]WF-NH2)
agonistic activity (in words) (human C5aR (CD88) [1]): pure antagonists

Molecule: CC(=O)N[C@@H](Cc1ccccc1)C(=O)N[C@@H](CCCN)C(=O)N1CCC[C@H]1C(=O)N[C@H](CC1CCCCC1)C(=O)N[C@@H](Cc1csc2ccccc12)C(=O)N[C@@H](Cc1ccccc1)C(N)=O [Compound 62, Ac-Phe-Orn-Pro-cha-Bta-Phe-NH2] (Ac-F[Orn]P[dCha][Bta]F-NH2)
agonistic activity (in words) (human C5aR (CD88) [1]): pure antagonists

Molecule: CC(=O)N[C@@H](Cc1ccccc1)C(=O)N[C@H]1CCCNC(=O)[C@H](CCCNC(=N)N)NC(=O)[C@H](Cc2c[nH]c3ccccc23)NC(=O)[C@@H](CC2CCCCC2)NC(=O)[C@@H]2CCCN2C1=O [Compound 40, Ac-Phe-[Orn-Pro-cha-Trp-Arg], reference compound]
Solubility in 20 mM HEPES pH 7.4 [3]: 94 % of 200 μM
solubility [3]: 94%

Molecule: CC(=O)N[C@@H](Cc1ccccc1)C(=O)N[C@@H](CCCN)C(=O)N1CC[C@H]1C(=O)N[C@H](CC1CCCCC1)C(=O)N[C@@H](Cc1c[nH]c2ccccc12)C(=O)N[C@@H](Cc1ccccc1)C(N)=O [Compound 83, Ac-Phe-Orn-Aze-cha-Trp-Phe-NH2] (Ac-F[Orn][Aze][dCha]WF-NH2)
agonistic activity (in words) (human C5aR (CD88) [1]): pure antagonists

Molecule: CCCC[C@@H]1NC(=O)[C@H](Cc2c[nH]c3ccccc23)NC(=O)[C@@H](CC2CCCCC2)NC(=O)[C@@H]2CCCN2C(=O)[C@@H](NC(=O)[C@H](Cc2ccccc2)NC(=O)[C@H]2OC(OC)[C@H](NC(C)=O)[C@@H](O)[C@@H]2O)CCCNC1=O (stereo partly drawn) [Compound 4, X-Phe-[Orn-Pro-cha-Trp-Nle]; X = 2-acetamido-1-methyl-glucuronyl] (Ac-[X2]F[Orn]P[dCha]W[Nle]; lactam 3-C)
Solubility in 20 mM HEPES pH 7.4 [3]: 84 % of 200 μM
solubility [3]: 84%

Molecule: CCCC[C@@H]1NC(=O)[C@H](Cc2c[nH]c3ccccc23)NC(=O)[C@@H](CC2CCCCC2)NC(=O)[C@@H]2CCCN2C(=O)[C@@H](NC(=O)[C@H](Cc2ccccc2)NC(C)=O)CCCNC1=O [Compound 28, Ac-Phe-[Orn-Pro-cha-Trp-Nle]] (Ac-F[Orn]P[dCha]W[Nle]; lactam 2-C)
Solubility in 20 mM HEPES pH 7.4 [3]: 22 % of 200 μM
solubility [3]: 22%
IC50-value compared to compound 40 (in words) (human C5aR (CD88) [2]): without a significant increase of the IC50-value
inhibitory activity (in words) (human C5aR (CD88) [2]; [4]): noteworthy inhibitory activity

Molecule: CC(=O)N[C@@H](Cc1ccccc1)C(=O)N[C@H]1CCCNC(=O)[C@H](Cc2cn(C)cn2)NC(=O)[C@H](Cc2c[nH]c3ccccc23)NC(=O)[C@@H](CC2CCCCC2)NC(=O)[C@@H]2CCCN2C1=O [Compound 20, Ac-Phe-[Orn-Pro-cha-Trp-Ecr]] (Ac-F[Orn]P[dCha]W[His(τ-Me)]; lactam 2-C)
inhibitory activity (in words) (human C5aR (CD88) [2]; [4]): noteworthy inhibitory activity

Molecule: CSCC[C@@H]1NC(=O)[C@H](Cc2c[nH]c3ccccc23)NC(=O)[C@@H](CC2CCCCC2)NC(=O)[C@@H]2CCCN2C(=O)[C@@H](NC(=O)[C@H](Cc2ccccc2)NC(C)=O)CCCNC1=O [Compound 29, Ac-Phe-[Orn-Pro-cha-Trp-Met]] (Ac-F[Orn]P[dCha]WM; lactam 2-C)
IC50-value compared to compound 40 (in words) (human C5aR (CD88) [2]): without a significant increase of the IC50-value
inhibitory activity (in words) (human C5aR (CD88) [2]; [4]): noteworthy inhibitory activity

Molecule: C#CC[C@@H]1NC(=O)[C@H](Cc2c[nH]c3ccccc23)NC(=O)[C@@H](CC2CCCCC2)NC(=O)[C@@H]2CCCN2C(=O)[C@@H](NC(=O)[C@H](Cc2ccccc2)NC(C)=O)CCCNC1=O [Compound 35, Ac-Phe-[Orn-Pro-cha-Trp-Eag]] (Ac-F[Orn]P[dCha]W[Pra]; lactam 2-C)
IC50-value compared to compound 40 (in words) (human C5aR (CD88) [2]): without a significant increase of the IC50-value
inhibitory activity (in words) (human C5aR (CD88) [2]; [4]): noteworthy inhibitory activity

Molecule: Ac-Phe-[Orn-Hyp(CONHCH2COH(OH)CH2OH)-cha-Trp-Phe]
inhibitory activity (in words) (human C5aR (CD88) [2]): noteworthy inhibitory activity

Molecule: CCCC[C@@H]1NC(=O)[C@H](Cc2c[nH]c3ccccc23)NC(=O)[C@@H](CC2CCCCC2)NC(=O)[C@@H]2CCCN2C(=O)[C@@H](NC(=O)CCc2ccccc2)CCCNC1=O [Compound 41, Ph—CH2—CH2—CO-[Orn-Pro-cha-Trp-Nle]] (Hydrocinnamoyl-[Orn]P[dCha]W[Nle]; lactam 1-C)
agonistic activity (in words) (human C5aR (CD88) [1]): pure antagonists
inhibitory activity (in words) (human C5aR (CD88) [2]; [4]): noteworthy inhibitory activity

Molecule: CCC[C@@H]1NC(=O)[C@H](Cc2c[nH]c3ccccc23)NC(=O)[C@@H](CC2CCCCC2)NC(=O)[C@@H]2CCCN2C(=O)[C@@H](NC(=O)[C@H](Cc2ccccc2)NC(C)=O)CCCNC1=O [Compound 31, Ac-Phe-[Orn-Pro-cha-Trp-Nva]] (Ac-F[Orn]P[dCha]W[Nva]; lactam 2-C)
IC50-value compared to compound 40 (in words) (human C5aR (CD88) [2]): without a significant increase of the IC50-value
inhibitory activity (in words) (human C5aR (CD88) [2]; [4]): noteworthy inhibitory activity
